Test system: AMPA receptors (rat cerebral cortex poly(A+) mRNA expressed in Xenopus oocytes)
Assay: Excitatory currents induced by AMPA in Xenopus oocytes (two-electrode voltage-clamp)
Format: cell-based
Conditions: (S)-AMPA 10 μM; Xenopus oocytes injected with rat cortex mRNA; 20-24° C.
Protocol: Study of the Excitatory Currents Induced by AMPA in Xenopus Oocytes
mRNA's are prepared from cerebral cortex of male Wistar rats by the guanidinium thiocyanate/phenol/chloroform method. The poly (A^+) mRNA's are isolated by chromatography on oligo-dT cellulose and injected at a level of 50 ng per oocyte. The oocytes are incubated for 2 to 3 days at 18° C. to permit expression of the receptors and are then stored at 8-10° C.
Electrophysiological recording is carried out in a Plexiglass® chamber at 20-24° C. in OR2 medium (J. Exp. Zool., 1973, 184, 321-334) by the “voltage-clamp” method using two electrodes, a third electrode being placed in the bath serving as reference.
All the compounds are applied via the incubation medium and the electric current is measured at the end of the application period. (S)-AMPA is used in a concentration of 10 μM. For each compound studied, the concentration that doubles (EC2X) or quintuples (EC5X) the intensity of the current induced by AMPA alone (5 to 50 nA) is determined.
The compounds of the invention potentiate the excitatory effects induced by (S)-AMPA to a very considerable degree.

In the case of CC(C)N1CNS(=O)(=O)c2sc(Cl)cc21 [Example 4, 6-Chloro-4-isopropyl-3,4-dihydro-2H-thieno[3,2-e][1,2,4]thiadiazine 1,1-dioxide], the “EC2X (concentration that doubles the intensity of the current induced by AMPA alone)” value was 4.2 ± 0.7 µM and the “EC5X (concentration that quintuples the intensity of the current induced by AMPA alone)” value was 11 ± 3 µM.
CN1CNS(=O)(=O)c2c(Cl)sc(Cl)c21 [Example 6, 5,7-Dichloro-4-methyl-3,4-dihydro-2H-thieno[3,4-e][1,2,4]thiadiazine 1,1-dioxide] was tested, and the “EC2X (concentration that doubles the intensity of the current induced by AMPA alone)” value was 5.4 ± 2.8 µM and the “EC5X (concentration that quintuples the intensity of the current induced by AMPA alone)” value was 11.3 ± 4.9 µM.

Source: US7476668B2, “Thiadiazine derivatives and use thereof as positive AMPA receptor modulators” (Les Laboratoires Servier, priority 2003, dated 2009)
